Laboratory results: US6767911B2, “Fungicidal active compound combinations” (priority 1994, dated 2004)

Assays:
[1] = tested on: Penicillium custosum; assay: Agar plate test with Penicillium custosum; assay type: cell-based; details: 100 ppm, inhibition of growth after 6 days
Procedure: Agar Plate Test With Penicillium custosum
39 parts by weight of potato dextrose agar
20 parts by weight of agar
are dissolved in 1,000 ml of distilled water and the solution is kept in an autoclave at 121° C. for 20 minutes.
50 parts by weight of acetone
950 parts by weight of water
Ratio of the amount of solvent to nutrient medium: 1:100
To produce a suitable preparation of active compound, 1 part by weight of active compound is mixed with the stated amount of solvent.
The concentrate is thoroughly mixed, in the stated ratio, with the liquid nutrient medium, and the mixture is poured into Petri dishes.
When the nutrient medium has cooled and solidified, the plates are inoculated with the following microorganisms and are incubated at about 21° C.: Penicillium custosum.
Evaluation is carried out after 6 days, the inhibition of growth being used as a measure of the action of the products.

[2] = tested on: Erysiphe graminis f.sp. hordei; assay: Erysiphe test (barley)/curative; assay type: in vivo; details: curative, 7 days after inoculation
Procedure: Erysiphe Test (Barley)/Curative
(§1) To produce a suitable preparation of active compound, commercially available formulations of active compound are diluted with water to the desired concentration.
To test for curative activity, young plants are dusted with spores of Erysiphe graminis f.sp. hordei. 48 hours after the inoculation, the plants are sprayed with the preparation of active compound at the application rate shown.
(§2) The plants are placed in a greenhouse at a temperature of about 20° C. and a relative atmospheric humidity of about 80%, in order to promote the development of mildew pustules.
(§3) Evaluation is carried out 7 days after the inoculation.
The expected degree of effectiveness in % of the untreated control was calculated using the equation [formula]
in which x and y denote, respectively, the degree of effectiveness—expressed in % of the untreated control—obtained by the two preparations when used separately. If the actually observed degree of effectiveness of the active compound combination exceeds the value calculated for the expected degree of effectiveness (E) using the abovementioned formula, then there is a superadditive, i.e. synergistic, effect.

[3] = tested on: Drechslera graminea; assay: Drechslera graminea test (barley)/seed treatment (syn. Helminthosporium gramineum); assay type: in vivo; details: approx. 3 weeks after sowing
Procedure: Drechslera graminea Test (Barley)/Seed Treatment (syn. Helminthosporium gramineum)
(§4) The active compounds are used as a powder for dry seed treatment. They are prepared by extending the active compound in question with rock meal to give a finely pulverulent mixture which guarantees uniform distribution on the seed surface.
(§5) To carry out the seed treatment, the infected seed and the seed-dressing product are shaken for 3 minutes in a sealed glass flask.
The seed, embedded in screened, moist standard soil in sealed Petri dishes, is exposed to a temperature of 4° C. for 10 days in a refrigerator. This triggers germination of the barley and, if appropriate, of the fungal spores. 2×50 pregerminated barley kernels are subsequently sown in standard soil at a depth of 3 cm and grown in a greenhouse at a temperature of approximately 18° in seed boxes which are exposed to the light for 15 hours per day.
Approximately 3 weeks after sowing, the plants are evaluated for symptoms of barley leaf stripe.

[4] = tested on: Leptosphaeria nodorum; assay: Leptosphaeria nodorum test (wheat)/protective; assay type: in vivo; details: protective, 125 g/ha, 10 days after inoculation
Procedure: Leptosphaeria nodorum Test (Wheat)/Protective
as §1
(§6) To test for protective activity, young plants are sprayed with the preparation of active compound at the application rate shown.
After the spray coating has dried on, the plants are sprayed with a spore suspension of Leptosphaeria nodorum. The plants remain for 48 hours in an incubation cabin at 20° C. and 100% relative atmospheric humidity.
The plants are placed in a greenhouse at a temperature of about 15° C. and a relative atmospheric humidity of about 80%.
Evaluation is effected 10 days after the inoculation.

[5] = tested on: Erysiphe graminis f.sp. hordei; assay: Erysiphe test (barley)/protective; assay type: in vivo; details: protective, 125 g/ha, 7 days after inoculation
Procedure: Erysiphe Test (Barley)/Protective
as §1, §6
After the spray coating has dried on, the plants are dusted with spores of Erysiphe graminis f.sp. hordei.
as §2, §3

[6] = tested on: Botrytis cinerea; assay: Botrytis test (beans)/protective; assay type: in vivo; details: protective, 3 days after inoculation
Procedure: Botrytis Test (Beans)/Protective
To produce a suitable preparation of active compound, either commercially available formulations of active compound (individual active compound or active compound combinations) or one part by weight of active compound is mixed with 4.7 parts by weight of solvent (acetone) and 0.3 parts by weight of emulsifier (alkyl-aryl polyglycol ether), and the mixture is diluted with water to the desired concentration.
To test for protective activity, young plants are sprayed with the preparation of active compound until dripping wet. After the spray coating has dried on, 2 small pieces of agar covered with Botrytis cinerea are placed on each leaf. The inoculated plants are placed in a darkened humid chamber at 20° C. 3 days after the inoculation, the size of the infected spots on the leaves is evaluated.
Active compounds, active compound concentrations and test results can be seen from the tables which follow.

[7] = tested on: Erysiphe graminis f.sp. tritici; assay: Erysiphe test (wheat)/protective; assay type: in vivo; details: protective, 125 g/ha, 7 days after inoculation
Procedure: Erysiphe Test (Wheat)/Protective
as §1, §6
After the spray coating has dried on, the plants are dusted with spores of Erysiphe graminis f.sp. tritici.
as §2
Evaluation is carried out 7 days' after the inoculation.

[8] = tested on: Fusarium nivale; assay: Fusarium nivale test (wheat)/seed treatment; assay type: in vivo; details: approx. 3 weeks after sowing
Procedure: Fusarium nivale Test (Wheat)/Seed Treatment
as §4, §5
2×100 wheat kernels are sown in standard soil at a depth of 1 cm and grown in the greenhouse at a temperature of approximately 10° C. and a relative atmospheric humidity of approximately 95% in seed boxes which are exposed to the light for 15 hours per day.
Approximately 3 weeks after sowing, the plants are evaluated for snow blight symptoms.

Q: Which “Degree of effectiveness in % of the untreated control” value [1] does the source give for CC1(C(=O)Nc2ccc(O)c(Cl)c2Cl)CCCCC1 [(I)] here?
A: Its value is 24%.

Q: And the “Degree of effectiveness in % of the untreated control” value ([2]; 20 g/ha)?
A: Its value is 25%.

Q: And the “Degree of effectiveness in % of the untreated control” value ([3]; 50 mg/kg of seed)?
A: The value was 41%.

Q: And the “Degree of effectiveness in % of the untreated control” value ([3]; 100 mg/kg of seed)?
A: The value was 43%.

Q: What about the “Degree of effectiveness in % of the untreated control” value [4] of the same compound?
A: Its value is 57%.

Q: And the “Degree of effectiveness in % of the untreated control” value [5]?
A: The value was 18%.

Q: What about the “Degree of effectiveness in % of the untreated control” value ([6]; 5 ppm) of the same compound?
A: Its value is 29%.

Q: And the “Degree of effectiveness in % of the untreated control” value [7]?
A: The value was 25%.

Q: And the “Degree of effectiveness in % of the untreated control” value ([8]; 25 mg/kg of seed)?
A: The value was 0%.

Q: And the “Degree of effectiveness in % of the untreated control” value ([8]; 100 mg/kg of seed)?
A: The value was 22%.

Q: CCCN(CC)CC1COC2(CCC(C(C)(C)C)CC2)O1 (stereo not drawn) [(L), 8-(,1,1-dimethylethyl)-N-ethyl-N-propyl-1,4-dioxaspiro[4,5]decane-2-methaneamine] was tested. Which “Degree of effectiveness in % of the untreated control” value ([2]; 10 g/ha) did it give?
A: Its value is 66%.

Q: What about the “Degree of effectiveness in % of the untreated control” value ([6]; 200 ppm) of the same compound?
A: The value was 0%.

Q: CNC(=O)/C(=N/OC)c1ccccc1Oc1ccccc1 [(M), (E)-α-(methoxyimino)-N-methyl-2-phenoxy-benzacetamide] was tested. Which “Degree of effectiveness in % of the untreated control” value ([6]; 25 ppm) did it give?
A: Its value is 28%.

Q: With CNC(=O)/C(=N/OC)c1ccccc1COc1cc(C)ccc1C [(N), (E)-α-(methoxyimono)-N-methyl-2-(2,5-dimethyl-phenoxy-methyl)-benzacetamide] as the compound, how does the “Degree of effectiveness in % of the untreated control” value ([6]; 12.5 ppm) read?
A: Its value is 64%.

Q: Cc1ccc(C(C)NC(=O)C(NC(=O)OC(C)C)C(C)C)cc1 (stereo not drawn) [(O), 1-methylethyl [2-methyl-1-[[[1-(4-methylphenyl)ethyl]amino]carbonyl]propyl]-carbamate] was tested. Which “Degree of effectiveness in % of the untreated control” value ([6]; 200 ppm) did it give?
A: The value was 19%.

Q: With Cc1cc(C2CC2)nc(Nc2ccccc2)n1 [Ciprodinyl, cyprodinyl] as the compound, how does the “Degree of effectiveness in % of the untreated control” value ([6]; 5 ppm) read?
A: The value was 5%.

Q: Fc1ccc(C2(Cn3cncn3)OC2c2ccccc2Cl)cc1 (stereo not drawn) [Epoxiconazole, epoxiconazole] was tested. Which “Degree of effectiveness in % of the untreated control” value [4] did it give?
A: Its value is 57%.

Q: Which “Degree of effectiveness in % of the untreated control” value ([3]; 100 mg/kg of seed) does the source give for CCCCc1c(C)nc(NCC)nc1O [Ethirimol, ethirimol] here?
A: The value was 8%.

Q: With N#Cc1c[nH]cc1-c1cccc(Cl)c1Cl [Fenpiclonil, fenpiclonil] as the compound, how does the “Degree of effectiveness in % of the untreated control” value ([3]; 50 mg/kg of seed) read?
A: Its value is 41%.

Q: And the “Degree of effectiveness in % of the untreated control” value ([8]; 25 mg/kg of seed)?
A: Its value is 6%.

Q: How did the “Degree of effectiveness in % of the untreated control” value ([6]; 50 ppm) turn out when CC(Cc1ccc(C(C)(C)C)cc1)CN1CCCCC1 (stereo not drawn) [Fenpropidin, fenpropidin] was run?
A: Its value is 0%.

Q: Which “Degree of effectiveness in % of the untreated control” value ([6]; 1 ppm) does the source give for N#Cc1c[nH]cc1-c1cccc2c1OC(F)(F)O2 [Fludioxonil] here?
A: Its value is 5%.

Q: How did the “Degree of effectiveness in % of the untreated control” value ([6]; 25 ppm) turn out when O=c1c2cc(F)ccc2nc(-n2cncn2)n1-c1ccc(Cl)cc1Cl [Fluquinconazole, fluquinconazole] was run?
A: Its value is 29%.

Q: For CC(=O)O.CC(=O)O.CC(=O)O.NC(N)=NCCCCCCCCNCCCCCCCCN=C(N)N [Iminoctadine triacetate], which “Degree of effectiveness in % of the untreated control” value [5] is on record?
A: Its value is 27%.

Q: Which results are given for Cc1ccc2nc3sc(=O)sc3nc2c1 [Quinomethionate, quinomethionate]?
A: Degree of effectiveness in % of the untreated control ([6]; 50 ppm): 0%; Degree of effectiveness in % of the untreated control [7]: 9%

Q: Which “Degree of effectiveness in % of the untreated control” value ([6]; 200 ppm) does the source give for O=S([O-])CO.[Na+] [Sodium hydroxymethyl sulphinate] here?
A: The value was 32%.
